Experimental data: PubChem BioAssay (NCI)
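These data come from cells grown in 96-well plates and exposed to compound for 48 hours at five concentrations. TGI: concentration producing complete growth inhibition.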

Assays:
Test in all cases: inhibition of tumour cell growth, NCI panel, 48 h
[1] = tested on: M14 melanoma
[2] = tested on: MDA-MB-435
[3] = tested on: HOP-62 NSCLC
[4] = tested on: OVCAR-3 ovarian
[5] = tested on: NCI-H226 lung
[6] = tested on: K-562 leukemia
[7] = tested on: LOX IMVI melanoma
[8] = tested on: NCI-H23 lung
[9] = tested on: KM20L2 colon
[10] = tested on: LXFL 529 NSCLC
[11] = tested on: SNB-78 CNS
[12] = tested on: DMS 114 small cell lung
[13] = tested on: M19-MEL melanoma
[14] = tested on: DLD-1 colon
[15] = tested on: HOP-18 NSCLC
[16] = tested on: DMS 273 small cell lung

SMILES | TGI [1] [µM] | TGI [2] [µM] | TGI [3] [µM] | TGI [4] [µM] | TGI [5] [µM] | TGI [6] [µM] | TGI [7] [µM] | TGI [8] [µM] | TGI [9] [µM] | TGI [10] [µM] | TGI [11] [µM] | TGI [12] [µM] | TGI [13] [µM] | TGI [14] [µM] | TGI [15] [µM] | TGI [16] [µM]
O=c1oc2ccccc2c(O)c1Cc1ccccc1Cc1c(O)c2ccccc2oc1=O | > 100 | > 100 | > 100 | > 100 | > 100 | > 100 | > 100 | > 100 |  |  |  |  |  |  |  | 
COc1c(OC)c(OC)c2c(=O)c(OC)c(-c3ccc4c(c3)OCO4)oc2c1OC | > 100 | > 100 | > 100 | > 100 | > 100 | > 100 | > 100 | > 100 |  |  |  |  |  |  |  | 
CCCCCCCCCCCCCC/C(C(=O)O)=C(\C)C(=O)O | > 100 | > 100 | > 100 | > 100 | > 100 | > 100 | > 100 | > 100 |  |  |  |  |  |  |  | 
c1cc2nnc1SCCSCCCSCCS2 | > 100 | > 100 | > 100 | > 100 | > 100 | > 100 | > 100 | > 100 |  |  |  |  |  |  |  | 
CCCCCCCCCc1cc(=O)c2c(O)cc(O)cc2o1 | 34.9 | 41.1 | 28.5 | 30.4 | 36 | 26 | 44.7 | 34.2 |  |  |  |  |  |  |  | 
CNC(=O)OCC1=C(COC(=O)NC)CN(c2ccc(OC)cc2)C1 | > 100 | > 100 | > 100 | > 100 | 41.1 | > 100 | > 100 | > 100 |  |  |  |  |  |  |  | 
COc1ccc(OC)c2c1ccc1c(C)c3ccccc3c(C)c12 | > 100 | > 100 | > 100 | > 100 | > 100 | > 100 | > 100 | > 100 |  |  |  |  |  |  |  | 
O=S(=O)(N1CCCCN(S(=O)(=O)C(F)(F)F)CCCN(S(=O)(=O)C(F)(F)F)CCCCN(S(=O)(=O)C(F)(F)F)CCCN(S(=O)(=O)C(F)(F)F)CCCCN(S(=O)(=O)C(F)(F)F)CCCN(S(=O)(=O)C(F)(F)F)CCCCN(S(=O)(=O)C(F)(F)F)CCC1)C(F)(F)F | > 31.6 | > 31.6 | > 31.6 | > 31.6 | > 31.6 | > 31.6 | > 31.6 | > 31.6 |  |  |  |  |  |  |  | 
COc1ccccc1CC1(O)OC(=O)c2ccccc21 (stereo not given) | > 100 | > 100 | > 100 | > 100 | > 100 | > 100 | > 100 | > 100 |  |  |  |  |  |  |  | 
N#Cc1n[nH]n(-c2ccccc2)c1=O | > 100 | > 100 | > 100 | > 100 | > 100 | > 100 | > 100 | > 100 |  |  |  |  |  |  |  | 
O=C(O)c1ccc2[nH]c(=O)oc2c1 | > 100 | > 100 | > 100 | > 100 | > 100 | > 100 | > 100 | > 100 |  |  |  |  |  |  |  | 
CCOc1cc2cnc3c4cc(OC)c(OC)cc4ccc3c2cc1OC | > 100 |  | > 100 | > 100 | > 100 | > 100 | > 100 | > 100 | > 100 | > 100 | > 100 | > 100 | > 100 | > 100 | > 100 | 
Oc1c(O)c(Cc2ccccc2)c(Cc2ccccc2)c(Cc2ccccc2)c1Cc1ccccc1 | > 10 | > 10 | > 10 | > 10 | > 10 | > 10 | > 10 | > 10 |  |  |  |  |  |  |  | 
CC(=O)Nc1ccc(S(=O)(=O)N/N=C(\C)CN2C(=O)c3ccccc3C2=O)cc1 | > 100 |  | > 100 | > 100 | > 100 | > 100 |  | > 100 | > 100 | > 100 | > 100 |  | > 100 | > 100 | > 100 | > 100
NC(=S)NN=C1Cc2ccccc2C1 | > 100 | > 100 | > 100 | > 100 | > 100 | > 100 | > 100 | > 100 |  |  |  |  |  |  |  | 
O=C(O)c1ccc(C2=Nc3cccc4cccc(c34)N2)cc1 | > 100 | > 100 | > 100 | > 100 | > 100 | > 100 | > 100 | > 100 |  |  |  |  |  |  |  | 
CC(C)C(=O)/C=C/c1ccc(Cl)cc1Cl | 20 | 10 | 33.1 | 16.1 | 41 | > 100 | 13.5 | 26.8 |  |  |  |  |  |  |  | 
CCCCCCCCCCCCCCCCCCOC(COP(=O)(O)OCC1OC(n2cc(F)c(=O)[nH]c2=O)CC1O)COP(=O)(O)OCC1OC(n2ccc(N)nc2=O)C(O)C1O (stereo not given) | 62.5 | > 100 | > 100 | > 100 | > 100 | > 100 | > 100 | > 100 |  |  |  |  |  |  |  | 
CCOC(=O)/C=C(/C(=O)OCC)n1cc(C)c(=O)[nH]c1=O | 3.91 | 10.2 | 33.2 | 6.71 | 10.7 | 4.73 | 5.94 | 18.3 |  |  |  |  |  |  |  | 
COC(=O)C1=C(C(=O)OC)N(c2ccncc2)C(c2ccco2)=CC1c1ccccc1[N+](=O)[O-] (stereo not given) |  | > 39.8 | > 46.2 | > 28.4 | 30.3 | > 100 | 3.35 | 29.8 |  |  |  |  |  |  |  | 
CN(C)c1ccc(C2=C([O-])c3cc(-[n+]4ccccc4)ccc3C2=O)cc1 |  | > 100 | > 100 | > 100 | > 100 | > 100 | > 100 | > 100 |  |  |  |  |  |  |  | 
CCOC(=O)c1nc2ccc(C(F)(F)F)cc2nc1NCc1ccc(F)cc1 | > 100 | > 100 | > 100 | > 100 | > 100 | > 100 | > 100 | > 100 |  |  |  |  |  |  |  | 
